Data on 7 substances can be found in patent publication US7919577B2, “Adrenocorticotropic hormone analogs and related methods” (Colorado Seminary, priority 2004, dated 2011).

Series [1] deals with dexamethasone-suppressed male FVB/N mice. Nature of the series: in vivo Serum Corticosteroid Induction Assay (Example 1). The arrangement: species or system mouse. The following applies: for in vivo activity, % corticosterone induction relative to mACTH(1-24): FIG. 5, method of Example 1; for Percent reduction in serum corticosteroid: relative to unmodified mACTH(1-24), 1 μg subcutaneously to dexamethasone-suppressed mice, blood one hour later. As for the experimental part: An in vivo Serum Corticosteroid Induction Assay measures the level of corticosteroid or corticosterone in the blood stream of a subject. More specifically, the in vivo Serum Corticosteroid Induction Assay can include the following steps: first, an agent to suppress endogenous ACTH production was administered to a mouse subject, such as an intraperitoneal injection of dexamethasone; second, after waiting a suitable period of time for suppression of endogenous ACTH production (e.g., 1.5-2.0 hours), a test compound can be administered to the mouse by a suitable method, such as intraperitoneal or subcutaneous injection; and third, after waiting a suitable period of time (e.g., 1 hour) for action of the injected test compound, a blood sample can be taken from the subject and the level of serum corticosterone can be determined by a suitable method, such as a competitive radioimmunoassay using ^125I RIA kit (ICN, Costa Mesa, Calif.). Example 1 describes a murine in vivo Serum Corticosteroid Induction Assay in detail.
The corticosteroid or corticosterone secretion induced in vivo by an ACTH analog compound was compared to the level of corticosteroid secretion produced by an unmodified ACTH compound by measuring blood serum corticosteroid after administering either the ACTH or ACTH analog as test compounds. […] ACTH analog compositions with decreased function were identified by measuring corticosterone levels using standard radioimmunoassay (RIA) analysis on blood samples collected one hour after administering the mACTH(1-24) or ACTH analog compound to dexamethasone-suppressed mice. In FIG. 1, the potency of various ACTH analog peptides is expressed as percent induction of corticosterone, with mouse ACTH being 100%. […] The percent of corticosterone induction 12 of ACTH analog Compounds in Samples 2-10 are shown as a percentage of the concentration of serum corticosterone 20 measured for unmodified mACTH(1-24) in the in vivo Serum Corticosteroid Adrenal Induction Assay. The structural modifications and measured percentage reduction in serum measured for Samples 2-10 in FIG. 1 are shown in Table 3 below.
The in vivo Serum Corticosteroid Induction Assay was performed according the following method. First, two to three month-old male FVB/N mice from our colony, five per group, were injected intraperitoneally with dexamethasone (0.4 mg/0.1 ml PBS per mouse; Sigma, St. Louis, Mo.) to suppress their endogenous ACTH production. See Hajos, G T et al., “Studies of the potency of polypeptides with ACTH action by a new method based on continuous measurement of plasma corticosterone,” Steroids Lipids Res 3:225-228 (1972), Costa, J L, et al., “Mutational analysis of evolutionarily conserved ACTH residues,” Gen Comp Endocrinol, 136:12-16 (2004), and Karpac, J, et al., “Development, Maintenance, and Function of the Adrenal Gland in Early Postnatal Pro-opiomelanocortin Null Mutant Mice,” Endocrinology (2005), published online ahead of print Feb. 24, 2005, all of which are incorporated herein by reference.
Second, ninety to one hundred twenty minutes later, the dexamethasone-suppressed mice were injected subcutaneously between the shoulder blades with either unmodified mACTH(1-24) or one of several ACTH analog peptide compounds (1 μg/0.1 mL PBS/0.5% BSA), or with vehicle alone (control) (0.1 mL PBS/0.5% BSA). The following ACTH analog peptide compounds were administered to separate mice: 1: murine ACTH1-24; 2: V26F,E30K; 3: P19W,K21E,Y23R; 4: E30K,P36R; 5: ALA19-24; 6: V26F,P36R; 7: P19W, K21E; 8: P19W,K21A,delY23; 9: P19W,K21A; 10: KRRP16-19RAAW (AT814) (SEQ ID NO:20).
Third, one hour later, blood was collected within less than 1 minute from a small incision in the tail, and serum was flash-frozen and stored at −80° C. until assayed. Serum corticosterone was determined by competitive radioimmunoassay (^125I RIA kit; ICN, Costa Mesa, Calif.) according to the manufacturer's recommendations. One microliter of serum was used per assay sample. […]

Series [2] concerns explanted mouse adrenal membrane (adrenal halves). The series is described as follows: in vitro Serum-free Adrenal Inhibition Assay (Example 4). The format is cell-based. The following applies: for in vitro activity, % corticosterone induction relative to mACTH(1-24): FIG. 5, method of Example 4; for in vitro activity compared with in vivo activity of the same analog: FIG. 5, in vitro Example 4, in vivo Example 1. As for the experimental part: A series of separate in vitro Serum-Free Adrenal Corticosteroid Inhibition Assay were performed to identify ACTH analogs that inhibit ACTH-induced adrenal hormone production in vitro. The concentration of corticosterone was measured according to the procedure of Example 4 in a serum-free culture medium containing explanted adrenal membrane and unmodified ACTH, AT814 ACTH analog (SEQ ID NO:20), or a combination of ACTH and AT814 at 100 ng/mL each. […] Corticosterone levels were taken at 2.0 hours after the adrenal membrane was placed in the serum free M199 medium, and each corticosterone level in Table 5 is an average of five samples.
The in vitro Serum-free Adrenal Inhibition Assay was performed according the following method. First, adrenals were removed from mice, dissected free of fat, and cut in half. See Costa, J L, et al., “Mutational analysis of evolutionarily conserved ACTH residues,” Gen Comp Endocrinol. 136:12-16 (2004); and Weber, M M, et al., “Postnatal overexpression of insulin-like growth factor II in transgenic mice is associated with adrenocortical hyperplasia and enhanced steroidogenesis,” Endocrinology 140:1537-1543 (1999), incorporated herein by reference.
Second, each adrenal half was placed into an individual well of a 4-well dish, one dish per mouse. Adrenal halves were incubated at 5% CO2, 37° C., in 0.5 ml serum-free medium (M199; Invitrogen) for 30 minutes to equilibrate.
Third, medium was removed and replaced by 0.5 ml M199 containing ACTH, AT814, or both, at 100 ng/ml each; controls had no peptides added.
Fourth, after 2 hours of incubation, the medium was removed, pooled for all four halves from each mouse, and assayed by corticosterone using standard RIA methods. corticosterone was determined by competitive radioimmunoassay (^125I RIA kit; ICN, Costa Mesa, Calif.) according to the manufacturer's recommendations. One microliter of serum was used per assay sample. Samples were run in duplicates.

Turning to “(K16A, R18A)mACTH(1-24) [ACTH analog 430]”, the “in vivo activity, % corticosterone induction relative to mACTH(1-24)” value in series [1] is “reduced”. In addition, in series [2], the “in vitro activity, % corticosterone induction relative to mACTH(1-24)” value is reported as “reduced” and the “in vitro activity compared with in vivo activity of the same analog” value is reported as “greater than its in vivo activity”.

In the case of “(P19W, K21A, delY23)mACTH (SYSMEHFRWGKPVGKKRRWVAVPNVAENESAEAFPLEF; Corticotropin; UniProt P01193 124-162, looked up, variant P19W K21A Y23*) [Sample 8]”, in series [1], the “Percent reduction in serum corticosteroid” value worked out at 76.0%.

Consider (PVKVYP19-24AAAAA)mACTH [Sample 5], for which, in series [1] (FIG. 5), the “in vivo activity, percent greater than the in vitro activity of unmodified mACTH” value is “about 50%”. In addition, in series [1], the “in vivo activity, % corticosterone induction relative to mACTH(1-24)” value was “greater relative to both mACTH and to other ACTH analogs”; the “Percent reduction in serum corticosteroid” value is 51%. Besides, the serum half life entry in series [1] (inferred from in vivo versus in vitro activity, FIG. 5) is “increased serum half life”.

For the substance “(P19W, K21A)mACTH (SYSMEHFRWGKPVGKKRRWVAVYPNVAENESAEAFPLEF; Corticotropin residues 1-24; UniProt P01193 124-162, looked up, variant P19W K21A) [Sample 9]”, the “in vivo activity, % corticosterone induction relative to mACTH(1-24)” value in series [1] was “reduced”. Also, in series [2], the “in vitro activity, % corticosterone induction relative to mACTH(1-24)” value was “reduced” and the “in vitro activity compared with in vivo activity of the same analog” value was “greater than its in vivo activity”.

Turning to “(K15Q, R17Q)mACTH(1-24) [ACTH analog 440]”, the “in vivo activity, % corticosterone induction relative to mACTH(1-24)” value in series [1] was “reduced”. For the same substance, in series [2], the “in vitro activity, % corticosterone induction relative to mACTH(1-24)” value is on record as “reduced” and the “in vitro activity compared with in vivo activity of the same analog” value is listed as “greater than its in vivo activity”.

On to “(K16A, R17A)mACTH(1-24) [ACTH analog 420]”, for which the “in vivo activity, % corticosterone induction relative to mACTH(1-24)” value in series [1] is reported as “reduced”. Also, in series [2], the “in vitro activity, % corticosterone induction relative to mACTH(1-24)” value was “reduced” and the “in vitro activity compared with in vivo activity of the same analog” value was “greater than its in vivo activity”.

In the case of “(K15A, R17A)mACTH(1-24) [ACTH analog 410]”, in series [1], the “in vivo activity, % corticosterone induction relative to mACTH(1-24)” value was “reduced”. For the same substance, in series [2], the “in vitro activity, % corticosterone induction relative to mACTH(1-24)” value is listed as “reduced” and the “in vitro activity compared with in vivo activity of the same analog” value is “greater than its in vivo activity”.
